Measured values taken from the kinase profiling compilation of Christmann-Franck et al. (2016).

What was measured:
Assay in all cases: radiometric filter-binding kinase assay
[1] = test system: AKT1 (human), P31749 [S473D]
[2] = target: AURKA (human) (UniProt O14965)
[3] = target: BRSK2 (human) (UniProt Q8IWQ3)
[4] = target: CHEK2 (human) (UniProt O96017)
[5] = target: CaMK1 (human) (UniProt Q14012)
[6] = target: DYRK1A (human) (UniProt Q13627)
[7] = target: DYRK2 (human) (UniProt Q92630)
[8] = target: EPHB2 (human) (UniProt P29323)
[9] = target: EPHB3 (human) (UniProt P54753)
[10] = target: ERBB4 (human) (UniProt Q15303)
[11] = target: HIPK2 (human) (UniProt Q9H2X6)
[12] = target: IKBKE (human) (UniProt Q14164)
[13] = target: MAP2K6 (human) (UniProt P52564)
[14] = target: MAP3K11 (human) (UniProt Q16584)
[15] = target: MAPK1 (human) (UniProt P28482)
[16] = target: MAPK10 (human) (UniProt P53779)
[17] = target: MAPK12 (human) (UniProt P53778)
[18] = target: MAPK13 (human) (UniProt O15264)
[19] = target: MAPK3 (human) (UniProt P27361)
[20] = target: MAPK8 (human) (UniProt P45983)
[21] = target: MAPKAPK3 (human) (UniProt Q16644)
[22] = target: MARK2 (human) (UniProt Q7KZI7)
[23] = target: MKNK1 (human) (UniProt Q9BUB5)
[24] = target: MST4 (human) (UniProt Q9P289)
[25] = target: NEK2 (human) (UniProt P51955)
[26] = target: NUAK1 (human) (UniProt O60285)
[27] = target: PAK4 (human) (UniProt O96013)
[28] = target: PAK7 (human) (UniProt Q9P286)
[29] = target: PLK1 (human) (UniProt P53350)
[30] = test system: PRKAA1 or PRKAA2 (rat); conditions: accession and sequence are those of the human protein
[31] = target: PRKACA (human) (UniProt P17612)
[32] = target: PRKCA (human) (UniProt P17252)
[33] = target: RPS6KA1 KD1 KD2 (human) (UniProt Q15418)
[34] = test system: SGK1 (human), O00141 [S422D]
[35] = target: SYK (human) (UniProt P43405)

Chain of PAK4 (human) (O96013 whole entry, looked up): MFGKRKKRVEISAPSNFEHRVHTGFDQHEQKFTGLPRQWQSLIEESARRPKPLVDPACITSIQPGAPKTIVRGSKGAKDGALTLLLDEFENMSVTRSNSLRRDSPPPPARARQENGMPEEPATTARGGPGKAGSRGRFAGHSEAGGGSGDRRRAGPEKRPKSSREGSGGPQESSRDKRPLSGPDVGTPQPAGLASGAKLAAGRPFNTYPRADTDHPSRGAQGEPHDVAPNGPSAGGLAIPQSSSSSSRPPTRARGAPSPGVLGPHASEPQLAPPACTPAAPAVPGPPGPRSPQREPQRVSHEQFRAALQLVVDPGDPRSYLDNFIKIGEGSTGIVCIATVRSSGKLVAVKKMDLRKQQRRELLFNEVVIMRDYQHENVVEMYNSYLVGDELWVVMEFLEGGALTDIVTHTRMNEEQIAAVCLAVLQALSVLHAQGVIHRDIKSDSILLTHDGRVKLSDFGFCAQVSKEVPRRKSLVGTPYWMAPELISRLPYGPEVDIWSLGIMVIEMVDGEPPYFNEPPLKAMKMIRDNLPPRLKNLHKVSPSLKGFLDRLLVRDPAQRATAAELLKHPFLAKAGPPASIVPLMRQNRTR
Chain of BRSK2 (human) (Q8IWQ3 whole entry, looked up): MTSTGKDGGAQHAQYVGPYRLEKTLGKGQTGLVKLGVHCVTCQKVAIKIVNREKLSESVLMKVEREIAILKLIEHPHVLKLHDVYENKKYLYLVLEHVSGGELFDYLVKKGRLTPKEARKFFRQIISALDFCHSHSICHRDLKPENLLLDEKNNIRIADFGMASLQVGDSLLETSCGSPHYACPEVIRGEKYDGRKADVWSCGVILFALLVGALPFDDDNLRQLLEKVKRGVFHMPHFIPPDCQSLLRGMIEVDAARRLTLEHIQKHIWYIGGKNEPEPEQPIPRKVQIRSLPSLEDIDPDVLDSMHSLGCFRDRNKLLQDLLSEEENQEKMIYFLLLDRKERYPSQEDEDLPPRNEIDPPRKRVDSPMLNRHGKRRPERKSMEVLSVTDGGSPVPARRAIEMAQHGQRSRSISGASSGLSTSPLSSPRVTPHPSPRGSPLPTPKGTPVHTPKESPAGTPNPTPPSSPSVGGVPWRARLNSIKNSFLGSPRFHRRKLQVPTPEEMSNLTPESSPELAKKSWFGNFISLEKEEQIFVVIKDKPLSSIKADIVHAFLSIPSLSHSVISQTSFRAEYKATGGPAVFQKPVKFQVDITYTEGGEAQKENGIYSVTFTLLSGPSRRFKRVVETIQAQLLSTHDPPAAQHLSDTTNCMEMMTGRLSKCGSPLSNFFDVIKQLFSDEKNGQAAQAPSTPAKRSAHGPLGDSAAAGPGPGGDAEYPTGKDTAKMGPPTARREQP
Chain of SGK1 (human), O00141 [S422D] (O00141 whole entry S422D, looked up): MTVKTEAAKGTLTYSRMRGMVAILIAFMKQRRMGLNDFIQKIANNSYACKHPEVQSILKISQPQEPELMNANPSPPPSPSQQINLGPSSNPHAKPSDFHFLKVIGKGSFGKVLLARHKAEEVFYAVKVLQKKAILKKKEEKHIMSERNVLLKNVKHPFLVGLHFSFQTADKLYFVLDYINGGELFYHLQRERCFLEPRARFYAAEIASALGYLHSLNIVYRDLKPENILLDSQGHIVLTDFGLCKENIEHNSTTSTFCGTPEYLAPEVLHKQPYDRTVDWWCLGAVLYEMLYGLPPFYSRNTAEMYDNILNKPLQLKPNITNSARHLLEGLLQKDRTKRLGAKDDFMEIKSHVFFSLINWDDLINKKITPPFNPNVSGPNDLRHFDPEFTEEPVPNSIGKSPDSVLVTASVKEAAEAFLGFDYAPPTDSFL
Chain of MAPK12 (human) (P53778 whole entry, looked up): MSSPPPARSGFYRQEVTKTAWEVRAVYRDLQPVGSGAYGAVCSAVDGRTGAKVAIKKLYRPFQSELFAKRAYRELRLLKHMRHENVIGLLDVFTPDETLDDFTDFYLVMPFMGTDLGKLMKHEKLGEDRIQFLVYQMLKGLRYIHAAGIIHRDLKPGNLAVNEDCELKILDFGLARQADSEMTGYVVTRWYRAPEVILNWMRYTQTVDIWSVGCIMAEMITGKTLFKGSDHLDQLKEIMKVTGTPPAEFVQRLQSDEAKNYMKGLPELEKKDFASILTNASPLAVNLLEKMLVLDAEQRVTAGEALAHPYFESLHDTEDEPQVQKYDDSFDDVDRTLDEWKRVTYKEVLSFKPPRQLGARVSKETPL
Chain of MKNK1 (human) (Q9BUB5 whole entry, looked up): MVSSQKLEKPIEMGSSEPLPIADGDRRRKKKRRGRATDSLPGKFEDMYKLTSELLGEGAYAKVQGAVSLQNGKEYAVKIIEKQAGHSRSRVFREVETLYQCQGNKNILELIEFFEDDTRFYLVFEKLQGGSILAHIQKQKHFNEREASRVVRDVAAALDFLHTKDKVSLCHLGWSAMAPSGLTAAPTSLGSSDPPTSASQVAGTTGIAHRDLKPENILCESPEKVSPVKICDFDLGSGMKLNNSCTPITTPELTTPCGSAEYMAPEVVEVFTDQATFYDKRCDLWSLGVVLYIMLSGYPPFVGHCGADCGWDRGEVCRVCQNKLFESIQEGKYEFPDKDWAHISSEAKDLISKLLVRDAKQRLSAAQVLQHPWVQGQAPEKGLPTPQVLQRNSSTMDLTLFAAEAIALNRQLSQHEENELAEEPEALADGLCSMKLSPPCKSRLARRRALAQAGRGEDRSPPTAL
Chain of PLK1 (human) (P53350 whole entry, looked up): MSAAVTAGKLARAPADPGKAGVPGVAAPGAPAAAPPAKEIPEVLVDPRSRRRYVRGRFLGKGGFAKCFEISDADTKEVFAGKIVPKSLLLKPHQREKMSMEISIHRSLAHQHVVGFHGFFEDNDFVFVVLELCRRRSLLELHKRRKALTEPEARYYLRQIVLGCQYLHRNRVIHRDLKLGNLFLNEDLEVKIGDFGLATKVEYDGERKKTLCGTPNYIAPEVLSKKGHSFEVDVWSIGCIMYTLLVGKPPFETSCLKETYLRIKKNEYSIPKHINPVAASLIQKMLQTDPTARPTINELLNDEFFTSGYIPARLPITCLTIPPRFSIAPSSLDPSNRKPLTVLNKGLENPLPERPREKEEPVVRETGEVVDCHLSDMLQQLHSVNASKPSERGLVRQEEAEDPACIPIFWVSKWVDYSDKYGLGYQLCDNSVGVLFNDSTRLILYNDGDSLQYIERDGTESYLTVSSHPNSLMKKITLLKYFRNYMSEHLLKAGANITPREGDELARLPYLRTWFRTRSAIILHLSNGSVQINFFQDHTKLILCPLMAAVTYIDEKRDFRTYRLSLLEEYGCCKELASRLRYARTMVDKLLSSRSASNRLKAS
Chain of IKBKE (human) (Q14164 whole entry, looked up): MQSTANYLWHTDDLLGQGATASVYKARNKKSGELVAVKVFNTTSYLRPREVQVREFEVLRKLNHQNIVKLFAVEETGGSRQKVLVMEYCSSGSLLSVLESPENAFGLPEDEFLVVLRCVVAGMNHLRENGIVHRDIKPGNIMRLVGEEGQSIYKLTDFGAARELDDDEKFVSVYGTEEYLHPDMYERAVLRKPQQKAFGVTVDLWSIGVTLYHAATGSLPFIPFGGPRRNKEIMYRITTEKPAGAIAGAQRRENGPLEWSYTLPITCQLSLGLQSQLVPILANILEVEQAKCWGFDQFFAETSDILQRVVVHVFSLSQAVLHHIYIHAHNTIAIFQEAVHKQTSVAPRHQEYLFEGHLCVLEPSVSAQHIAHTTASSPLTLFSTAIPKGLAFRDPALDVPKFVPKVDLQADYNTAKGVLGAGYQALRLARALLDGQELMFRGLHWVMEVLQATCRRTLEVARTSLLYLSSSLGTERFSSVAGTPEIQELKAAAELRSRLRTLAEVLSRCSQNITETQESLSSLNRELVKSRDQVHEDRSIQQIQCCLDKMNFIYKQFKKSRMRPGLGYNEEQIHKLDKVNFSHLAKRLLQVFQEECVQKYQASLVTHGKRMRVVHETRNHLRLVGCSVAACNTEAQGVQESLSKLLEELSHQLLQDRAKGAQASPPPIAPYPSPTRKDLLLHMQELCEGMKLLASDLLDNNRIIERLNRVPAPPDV
Chain of CaMK1 (human) (Q14012 whole entry, looked up): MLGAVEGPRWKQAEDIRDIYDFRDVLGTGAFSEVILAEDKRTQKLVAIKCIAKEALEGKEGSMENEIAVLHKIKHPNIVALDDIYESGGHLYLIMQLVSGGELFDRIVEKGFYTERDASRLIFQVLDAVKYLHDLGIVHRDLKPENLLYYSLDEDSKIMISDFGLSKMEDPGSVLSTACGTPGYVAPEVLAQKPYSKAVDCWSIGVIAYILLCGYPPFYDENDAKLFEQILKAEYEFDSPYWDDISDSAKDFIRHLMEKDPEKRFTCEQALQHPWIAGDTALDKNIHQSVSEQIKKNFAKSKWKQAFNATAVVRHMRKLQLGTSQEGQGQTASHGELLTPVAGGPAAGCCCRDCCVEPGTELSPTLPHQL

Question: What does the source list for Oc1ccc2ccccc2c1SSc1c(O)ccc2ccccc12?
Answer: residual activity ([1]; compound 1.0 µM): 87%; residual activity ([1]; compound 5.0 µM): 62%; residual activity ([1]; compound 10.0 µM): 85%; residual activity ([2]; compound 1.0 µM): 2%; residual activity ([2]; compound 5.0 µM): 2%; residual activity ([3]; compound 1.0 µM): 39%; residual activity ([3]; compound 5.0 µM): 14%; residual activity ([3]; compound 10.0 µM): 48%; residual activity ([4]; compound 1.0 µM): 58%; residual activity ([4]; compound 5.0 µM): 34%; residual activity ([4]; compound 10.0 µM): 94%; residual activity ([5]; compound 1.0 µM): 6%; residual activity ([5]; compound 5.0 µM): 3%; residual activity ([5]; compound 10.0 µM): 7%; residual activity ([6]; compound 1.0 µM): 47%; residual activity ([6]; compound 5.0 µM): 19%; residual activity ([6]; compound 10.0 µM): 83%; residual activity ([7]; compound 1.0 µM): 68%; residual activity ([7]; compound 5.0 µM): 45%; residual activity ([7]; compound 10.0 µM): 64%; residual activity ([8]; compound 1.0 µM): 137%; residual activity ([8]; compound 5.0 µM): 169%; residual activity ([9]; compound 1.0 µM): 86%; residual activity ([9]; compound 5.0 µM): 69%; residual activity ([9]; compound 10.0 µM): 26%; residual activity ([10]; compound 1.0 µM): 62%; residual activity ([10]; compound 5.0 µM): 49%; residual activity ([11]; compound 1.0 µM): 24%; residual activity ([11]; compound 5.0 µM): 15%; residual activity ([11]; compound 10.0 µM): 73%; residual activity ([12]; compound 1.0 µM): 7%; residual activity ([12]; compound 5.0 µM): 4%; residual activity ([12]; compound 10.0 µM): 70%; residual activity ([13]; compound 1.0 µM): 93%; residual activity ([13]; compound 5.0 µM): 70%; residual activity ([14]; compound 1.0 µM): 9%; residual activity ([14]; compound 5.0 µM): 2%; residual activity ([15]; compound 1.0 µM): 56%; residual activity ([15]; compound 5.0 µM): 39%; residual activity ([15]; compound 10.0 µM): 101%; residual activity ([16]; compound 1.0 µM): 106%; residual activity ([16]; compound 5.0 µM): 77%; residual activity ([17]; compound 1.0 µM): 97%; residual activity ([17]; compound 5.0 µM): 99%; residual activity ([17]; compound 10.0 µM): 103%; residual activity ([18]; compound 1.0 µM): 102%; residual activity ([18]; compound 5.0 µM): 102%; residual activity ([18]; compound 10.0 µM): 104%; residual activity ([19]; compound 1.0 µM): 9%; residual activity ([19]; compound 5.0 µM): 6%; residual activity ([19]; compound 10.0 µM): 8%; residual activity ([20]; compound 1.0 µM): 99%; residual activity ([20]; compound 5.0 µM): 76%; residual activity ([20]; compound 10.0 µM): 89%; residual activity ([21]; compound 1.0 µM): 26%; residual activity ([21]; compound 5.0 µM): 10%; residual activity ([22]; compound 1.0 µM): 85%; residual activity ([22]; compound 5.0 µM): 66%; residual activity ([23]; compound 1.0 µM): 88%; residual activity ([23]; compound 5.0 µM): 76%; residual activity ([23]; compound 10.0 µM): 100%; residual activity ([24]; compound 1.0 µM): 6%; residual activity ([24]; compound 5.0 µM): 8%; residual activity ([24]; compound 10.0 µM): 53%; residual activity ([25]; compound 1.0 µM): 10%; residual activity ([25]; compound 5.0 µM): 8%; residual activity ([25]; compound 10.0 µM): 54%; residual activity ([26]; compound 1.0 µM): 11%; residual activity ([26]; compound 5.0 µM): 6%; residual activity ([27]; compound 1.0 µM): 119%; residual activity ([27]; compound 5.0 µM): 45%; residual activity ([27]; compound 10.0 µM): 98%; residual activity ([28]; compound 1.0 µM): 99%; residual activity ([28]; compound 5.0 µM): 49%; residual activity ([28]; compound 10.0 µM): 121%; residual activity ([29]; compound 1.0 µM): 90%; residual activity ([29]; compound 5.0 µM): 12%; residual activity ([29]; compound 10.0 µM): 9%; residual activity ([30]; compound 1.0 µM): 55%; residual activity ([30]; compound 5.0 µM): 27%; residual activity ([30]; compound 10.0 µM): 90%; residual activity ([31]; compound 1.0 µM): 101%; residual activity ([31]; compound 5.0 µM): 92%; residual activity ([31]; compound 10.0 µM): 100%; residual activity ([32]; compound 1.0 µM): 91%; residual activity ([32]; compound 5.0 µM): 48%; residual activity ([32]; compound 10.0 µM): 65%; residual activity ([33]; compound 1.0 µM): 78%; residual activity ([33]; compound 5.0 µM): 62%; residual activity ([34]; compound 1.0 µM): 89%; residual activity ([34]; compound 5.0 µM): 48%; residual activity ([34]; compound 10.0 µM): 107%; residual activity ([35]; compound 1.0 µM): 77%; residual activity ([35]; compound 5.0 µM): 12%; residual activity ([35]; compound 10.0 µM): 92%
